{
  "source": "patent US20090317376A1",
  "about": "“Compositions And Methods For Lipo Modeling” (Georgetown University MEDICAL SCHOOL, priority 2005, published 2009)",
  "key": {"3T3-L1 preadipocytes": {"system": "3T3-L1 preadipocytes", "test": "Preadipocyte proliferation (mitogenic assay)", "format": "cell-based, murine", "excerpt": "To mimic stress-released NPY in vitro, conditioned media from, or coculture with, neuroblastoma SKNBE cells (a model of sympathetic neurons which release 0.1 pM NPY) is used to treat endothelial cells and 3T3-L1 preadipocytes. Both cell lines express all NPYRs but lack NPY (confirmed by RT-PCR and IHC, FIG. […] 6). […] When 3T3-L1 preadipocytes are cocultured with HMVEC, there is no significant mitogenic response between treated and untreated cells.\nCo-culture: For mitogenic assay and expression studies, co-culture is performed in a Costar Transwell system. Cells are plated on the 6-well plates and the inserts with 0.4 μm Polyester membranes. After they reach 30% confluence, the inserts are placed into plates with other cells. Co-culture of neuroblastomas/SCG neurons with aECs are carried out in EC media and with preadipocytes—in preadipocyte growth media. […] After 48 h, the cells are counted with a coulter counter. […]\nMitogenic assays: 3T3-L1 pre-adipocytes are allowed to grow to 30% confluency before serum-starving the cells. […] Proliferation is determined by cell counting using a coulter counter (Beckman Coulter, Miami, Fla.). […] After 24 h, cells are harvested in a 96-well harvester (Tomtec) and counted in a Betaplate Liquid Scintillation Counter (Wallac).\n1. […] After 24 h, cells were harvested in a 96-well harvester (Tomtec) and counted in a Betaplate Liquid Scintillation Counter (Wallac). […]"}, "abdominal fat": {"system": "abdominal fat", "test": "Stress and high-fat diet induced obesity model", "format": "in vivo, mice", "experimental": "In environmentally-induced obese mice, normal NWT C57BL/6 and SV129 mice are subjected to low levels of chronic stress (cold stress, 1 cm ice-water bath at the base of the cage for 1 hour, a technique that increases NPY and stimulates vascular growth) and fed a high-fat, “comfort food” diet consisting of lard and sucrose (standard chow diet/high fat diet: fat: 12%/45%, carbohydrates: 60%/35%, and protein: 28%/20%). These mice are treated with NPY, Y2R agonists and Y2R antagonists. The growth of fat deposits is monitored by MRI and vascularization is confirmed by immunohistochemistry (IHC). ELISA, IHC, and quantitative real-time RT-PCR are used to determine how diet and stress affect NPY and Y2R levels. Core body temperature and food intake are monitored to determine changes in metabolism (FIG. 15). Glucose tolerance tests and lipid profiles of the mice are used to determine whether altering adipose mass results in a change in insulin, glucose, FFA, TG or cholesterol in the plasma (FIG. 18).\nMagnetic Resonance Imaging (MRI): A Brukker 7-Tesla small-animal magnetic resonance imager coil is used to visualize and noninvasively quantitate various fat depots. A 3-dimensional (3D) T2-weighted (T2W) imaging protocol optimized for high contrast fat-imaging is implemented. […] Quantification of the total body fat as well as separate specific fat depots is calculated using thresholding and voxel count plugins from NIH image J software. VolumeJ is used to render, in a 3D image, the various fat depots. The animal management system that is used in conjunction with the MRI is equipped to take core, skin, ambient and water blanket temperature measurements that are monitored during the imaging. The water blanket is used to regulate core temperature of the rodent during anesthesia. […]\nHigh fat diet: Mice are given either a Standard Chow (SC) diet: 28% protein, 60% carbohydrate, 12% fat (4 kcal/gm) or a High Fat (HF) diet: 20% protein, 35% carbohydrate, 45% fat (4.7 kcal/gm) from Research Diets for 14-28 days. Food consumption is measured daily from the various treatment groups and pairfeeding ensures that changes seen in weight and visceral fat are due to the peripheral effects of the treatment. […]"}, "[1]": {"details": "intra-fat injection, HF and stress"}, "[2]": {"details": "local Y2R antagonist, stress and HF-diet"}, "[3]": {"details": "local intra-fat injections, within 2-weeks, HF + stress"}},
  "note": "Entries after “also recorded” stand apart in the source; their conditions may differ.",
  "data": [
    {"compound": "N=C(N)NCCC[C@H](NC(=O)CC1(CC(=O)N2CCN(C3c4ccccc4NC(=O)c4ccccc43)CC2)CCCC1)C(=O)NCCn1c(=O)n(-c2ccccc2)n(-c2ccccc2)c1=O", "note": "(stereo partly shown) [BIIE0246]", "values": [
      {"measurement": "block of NPY- and neuroblastoma-conditioned media-stimulated preadipocyte proliferation", "setting": "3T3-L1 preadipocytes; BIIE0246 1 μM", "result": "blocked"},
      {"measurement": "stress-amplification of visceral fat (MRI fat volume fraction)", "setting": "abdominal fat; four weeks daily 1-hr cold stress + high fat diet", "result": "reversed"},
      {"measurement": "stress-induced insulin-to-NPY switch and metabolic abnormalities", "setting": "abdominal fat; intra-fat administration", "result": "fully prevented"},
      {"measurement": "fat mass", "setting": "abdominal fat; [1]", "result": "reduced fat mass"},
      {"measurement": "imbalance of NPY-to-epinephrine plasma levels", "setting": "abdominal fat; [1]", "result": "reversed this imbalance"},
      {"measurement": "stress+HF-induced hyperlipidemia", "setting": "abdominal fat; intra-fat injections", "result": "did not alter"},
      {"measurement": "UCP-1/2 expression in WAT", "setting": "abdominal fat; intra-fat injections, stress+HF", "result": "did not alter"},
      {"measurement": "adipocyte apoptosis (TUNEL)", "setting": "abdominal fat; [2]", "result": "increased their apoptosis"},
      {"measurement": "adipocyte proliferation (Ki67+ staining)", "setting": "abdominal fat; [2]", "result": "inhibited adipocyte proliferation"},
      {"measurement": "insulin levels", "setting": "abdominal fat; [3]", "result": "increased insulin levels"},
      {"measurement": "metabolic profile", "setting": "abdominal fat; [3]", "result": "improved metabolic profile"},
      {"measurement": "plasma NPY levels", "setting": "abdominal fat; [3]", "result": "normalized"},
      {"measurement": "plasma adipokine levels", "setting": "abdominal fat; [3]", "result": "normalized"},
      {"measurement": "tissue steatosis (liver and skeletal muscle)", "setting": "abdominal fat; local intra-fat injections, HF + stress, listed as Y2R antagonist", "result": "inhibited tissue steatosis; also recorded: reduced liver and skeletal muscle steatosis"},
      {"measurement": "visceral fat", "setting": "abdominal fat; nonstressed WT mice, FIG. 17", "result": "significant reduction in visceral fat"},
      {"measurement": "lowered plasma osteocalcin levels (bone loss response)", "setting": "abdominal fat; stress combined with HF, intra-fat delivery", "result": "completely normalized"},
      {"measurement": "stress-induced WAT cellularity, proliferation of small adipocytes", "setting": "abdominal fat; stress in HF-fed mice", "result": "reversed"},
      {"measurement": "visceral fat volume fraction", "setting": "abdominal fat; stressed C57BL/6 WT mice, FIG. 17", "result": "reversed"},
      {"measurement": "other fat depots", "setting": "abdominal fat; stressed HF-fed mice, 2-weeks", "result": "without significantly changing other depots"},
      {"measurement": "reduction of abdominal (subcutaneous and visceral) depot", "setting": "abdominal fat; stressed HF-fed mice, pellet 10 μg/14 days or daily injections 1 μM, 2-weeks", "result": 40, "unit": "%"},
      {"measurement": "visceral fat volume fraction", "setting": "abdominal fat; stressed SV129 mice on high-fat diet, Y2R antagonist slow-release pellets, FIG. 16", "result": "reduced to a level that is comparable to nonstressed SV129 mice given a placebo pellet"}
    ]},
    {"compound": "neuropeptide Y [NPY]", "values": [
      {"measurement": "preadipocyte proliferation", "setting": "3T3-L1 preadipocytes; NPY treatment of 3T3-L1 preadipocytes", "result": "stimulated"}
    ]}
  ]
}
